# US9187518B2, “Antiangiogenic brassinosteroid compounds” (CONSEJO NACIONAL DE INVESTIGACIONES CIENTIFICAS Y TECNICAS …, priority 2011, dated 2015)
# Columns and labels:
# [1] = test system: HUVEC cells; test: Capillary tube formation on a Matrigel; type: cell-based, human; conditions: for formation of capillary tube like structures: 20 μM and 40 μM, comparative assay; for antiangiogenic activity in the tube-like formation assay in HUVEC cells: overall conclusion
# Procedure: The formation of capillary tube like structures by HUVEC cells was analyzed on 24-well cell culture plates coated with an extracellular membrane matrix (Matrigel; BD Biosciences).
# Matrigel was thawed at 4° C. Using precooled plates and tips, 100 μl/well of Matrigel was distributed and allowed to gelify at 37° C. for at least 30 min. Cells were seeded on the polymerized Matrigel (5 to 8×10^4 cells/well). The plate was incubated at 37° C., and tube formation was observed under a optic inverted microscope. Digital pictures were taken at different times with a camera. Tubular structures were quantified by manual counting of low power fields (25×) and inhibition percentage was expressed using untreated wells as 100%.
# The formation of capillary tube-like structures by HUVEC cells was analyzed on 24-well cell culture plates coated with an extracellular membrane matrix (Matrigel; BD Biosciences). Matrigel was thawed at 4° C. Using precooled plates and tips, 100 μl/well of Matrigel was distributed and allowed to gelify at 37° C. for at least 30 min. Cells were seeded on the polymerized Matrigel (5 to 8×10^4 cells/well) in absence and presence of concentrations of 20 μM and 40 μM of each compound. The plate was incubated at 37° C., and tube formation was observed under an optic inverted microscope. Compound 1 was used as positive control.
# [2] = test system: TNF-α; conditions: LPS-stimulated macrophages in vitro; earlier work; cited from earlier work
# [3] = test system: IL-6; conditions: human epithelial cells derived from ocular tissues; earlier work; cited from earlier work
# [4] = test system: TNF-α; conditions: human epithelial cells derived from ocular tissues; earlier work; cited from earlier work
# [5] = test system: HSV-1; conditions: murine model of HSV-1 corneal infection; previously reported; cited from earlier work
# [6] = test system: NF-κB p65 subunit; test: NF-κB p65 nuclear translocation in LPS-stimulated J774A.1 cells (IFI); type: cell-based, murine; conditions: J774A.1 induced with LPS 8 h, 40 μM (LPS only 79.4±1.2)
# Procedure: J774A.1 cells were grown on coverslips in 24-well plates and stimulated with 100 ng/ml LPS (Sigma) in RPMI without SFB, for 8 h at 37° C.
# After incubation, cells were fixed in methanol at −20° C. for 10 min, and processed for indirect immunofluorescence (IFI) with antibodies directed against the glycoprotein D (gD) of HSV-1 and/or the p65 subunit of NF-κB. After three washes with PBS, the coverslips were inverted on a drop of a 1/100 dilution of the first antibody, mouse monoclonal anti-gD and/or rabbit polyclonal anti p65 (Santa Cruz Biotechnology) and incubated for 30 min at 37° C., and then subjected to three additional washes with PBS. […]
# The images obtained with a 40× magnification were imported into NIH Image J 1.34s program (designed by Wayne Rasband, NIMH, Bethesda). […] We analyzed the total and nuclear fluorescence of the individual cells and a mean fluorescence density was obtained for each. To compare the distribution of fluorescence within the cell, the results were analyzed in a spreadsheet (Excel®). The total fluorescence intensity or nuclear density was calculated as the total or nuclear average per total or nuclear area, respectively. Then, we calculated the percentage of nuclear intensity or the percentage of nuclear intensity with respect to the total intensity for each cell. […]
# [7] = test system: TNF-α; test: TNF-α secretion in LPS-activated macrophages; type: cell-based; conditions: Macrophage, read-out: inhibitory concentration 50% (IC50), TNF-α secretion
# [8] = test system: IL-6; test: IL-6 secretion in LPS-stimulated J774A.1 macrophages (ELISA); type: cell-based, murine; conditions: J774A.1 stimulated with 100 ng/ml LPS 8 h, 40 μM
# Procedure: J774A.1 cells grown in 24-well plates were incubated at 37° C. with 100 ng/ml of LPS, in duplicate. After 8 h, supernatants were harvested and murine IL-6 was quantified by commercial ELISA sets (BD OptEIA™, Becton Dickinson, USA) according to manufacturer instructions.
smiles,measurement,setting,value
"CC[C@@H](C(C)C)[C@H](O)[C@@H](O)[C@@H](C)[C@H]1CC[C@H]2[C@@H]3CCC4=CC(=O)C=C[C@]4(C)[C@H]3CC[C@]12C [Compound 2, (22S,23S)-22,23-dihydroxystigmasta-1,4-dien-3-one]",formation of capillary tube like structures,[1],showed inhibitory activity
"CC[C@@H](C(C)C)[C@H](O)[C@@H](O)[C@@H](C)[C@H]1CC[C@H]2[C@@H]3CC(=O)[C@@]4(O)C[C@@H](Br)CC[C@]4(C)[C@H]3CC[C@]12C [Compound 6b, (22S,23S)-3β-bromo-5α,22,23-trihydroxystigmastan-6-one]",production of TNF-α,[2],hinders
same,secretion of IL-6,[3],modulates
same,secretion of TNF-α,[4],modulates
same,anti-HSV-1 activity in vivo,[5],does not exert an anti-HSV-1 activity in vivo
same,incidence of HSK,[5],significantly decreases
CC[C@@H](C(C)C)[C@H](O)[C@@H](O)[C@@H](C)[C@H]1CCC2C3C[C@H](F)C4=CC(=O)CC[C@]4(C)C3CC[C@@]21C (stereo partly shown) [Compound III],formation of capillary tube like structures,[1],develop the formation of capillary tube-like structures in same manner than control cells without treatment
same,antiangiogenic activity in the tube-like formation assay in HUVEC cells,[1],not present
CC[C@@H](C(C)C)[C@H](O)[C@@H](O)[C@@H](C)[C@H]1CCC2C3C[C@H](F)C4=CC(=O)C=C[C@]4(C)C3CC[C@@]21C (stereo partly shown) [Compound IV],formation of capillary tube like structures,[1],develop the formation of capillary tube-like structures in same manner than control cells without treatment
same,antiangiogenic activity in the tube-like formation assay in HUVEC cells,[1],not present
"C[C@@H]1C[C@H]2[C@@H]3CCC4=CC(=O)C=C[C@]4(C)[C@@]3(F)[C@@H](O)C[C@]2(C)[C@@]1(O)C(=O)CO [DEX, Dexamethasone, reference compound]",percentage of cells positive for NF-κB translocation to the nucleus,[6],100%
same,IC50,[7],48 µM
same,IL-6 level,[8],637.1 ± 3.8 pg/mL
